Results: patent US20210030650A1, “USE OF A NOVEL COMPOSITION FOR PREVENTING OR SLOWING DOWN THE APPEARANCE OF UNSIGHTLY SIGNS RELATING TO THE PRESENCE OF EXCESS SEBUM” (SOCIETE D'EXPLOITATION DE PRODUITS POUR LES INDUSTRIES …, priority 2018, published 2021)
Read-outs that look alike come from different tables or passages of the source.

Assays:
[1] = system: sebocytes of the SEBO662AR line; experiment: Overproduction of lipids by testosterone-stimulated sebocytes (Bodipy lipid droplet imaging, standardized by nuclei count); type: cell-based
Text: The imbalance in the cutaneous microbiota occurs in particular when the proliferation of Propionibacterium acnes is observed. In this case also, Propionibacterium acnes induces inflammation of the skin, on the one hand by inducing the overproduction of lipids by sebocytes and, on the other hand, by producing a lipase which converts triglycerides into free fatty acids, which are irritating and chemotactic for neutrophils.
The effect of the composition (C1A) on the overproduction of lipids was studied on sebocytes of the SEBO662AR line (Bioalternatives line) sensitive to stimuli, such as testosterone, to produce lipids.
The sebocytes were first of all treated for 4 hours with the composition to be tested (or a positive reference). The testosterone was then added for 7 days to the culture medium, with renewal of the treatments and of the stimulation after 3 days. The formation of lipid droplets was detected by imaging using the Bodipy® fluorescent probe and the results were standardized by counting the nuclei with Hoechst staining.
The values are expressed as means+/−sem [standard error of the mean=standard deviation/root (number of values)].
% stimulation=100×[mean (cells+treatment)/mean (cells stimulated with testosterone)]
% inhibition=100×[mean (cells+treatment)−mean (cells stimulated with testosterone)/mean (untreated cells)−mean (cells stimulated with testosterone)]

lipase = experiment: Antilipase activity, in tubo method (1,2-diglyceride to glycerol, absorbance at 570 nm); type: biochemical; settings: for % inhibition of the lipase: Table 11 experiment
Procedure: This involves studying the ability of a composition to […] and regulate the activity of the lipase enzyme by an in tubo method, said enzyme having an inflammatory action.
The samples in the evaluation test are placed in tubo in the presence of lipase and 1,2-diglyceride and the absorbance of the samples is measured with a spectrophotometer at the wavelength 570 nm as soon as they are prepared and then after 60 minutes of incubation at 37° C., under the same spectral conditions. By virtue of a range of glycerol, the lipase activity of the samples can be calculated, as well as the percentage of inhibition, according to the following formulae:
Lipase activity=(amount of glycerol formed between 0 and 60 minutes)/(60 minutes×sample volume)
Percentage of inhibition=100×[(lipase activity of the control group)−(lipase activity of the test product)]/(lipase activity of the control group).

[2] = Table 9, 1 nM testosterone, 0.006% compound
[3] = Table 9, 1 nM testosterone, 0.012% compound

Q: With `O=C(O)CC(O)C(=O)OC1(C(=O)O)CC(OC(=O)C=Cc2ccc(O)c(O)c2)C(OC(=O)C=Cc2ccc(O)c(O)c2)C(OC(=O)C=Cc2ccc(O)c(O)c2)C1` (stereo not drawn) [Compound of formula (Ia), 1-O-Maloyl-3,4,5-tri-O-caffeoylquinic acid] as the compound, how does the “Lipids, % change vs testosterone-stimulated cells” value (“Lipids, % change” for short) ([1]; Table 9, 1 nM testosterone, 0.0012% compound) read?
A: 21

Q: And the “Lipids, % change” value [1, 2]?
A: −34

Q: What about the “Lipids, % inhibition” value [1, 2] of the same compound?
A: 38%

Q: And the “Lipids, % change” value [1, 3]?
A: −29

Q: What about the “Lipids, % inhibition” value [1, 3] of the same compound?
A: 32%

Q: And the Lipase activity (lipase; Table 11, 0.00012% by weight, control 4.72)?
A: 4.65 +/− 0.03 mU/ml

Q: And the Lipase activity (lipase; Table 11, 0.00024% by weight, control 4.72)?
A: 4.15 +/− 0.03 mU/ml

Q: What about the Lipase activity (lipase; Table 11, 0.0006% by weight, control 4.72) of the same compound?
A: 2.16 +/− 0.07 mU/ml

Q: What about the Lipase activity (lipase; Table 11, 0.0012% by weight, control 4.72) of the same compound?
A: 1.02 +/− 0.01 mU/ml

Q: And the “% inhibition of the lipase” value (lipase; 0.0006% by weight)?
A: 54%

Q: What about the “% inhibition of the lipase” value (lipase; 0.0012% by weight) of the same compound?
A: 78%

Q: Which results are given for `O=C1O[C@H]([C@@H](O)CO)C(O)=C1O` [Vitamin C, reference compound]?
A: Lipase activity (lipase; Table 10, positive reference, concentration not given, 60 minutes at 37° C., control 4.21): 2.11 +/− 0.01 mU/m1; Lipase activity (lipase; Table 11, positive reference, concentration not given, control 4.72): 1.36 +/− 0.01 mU/ml

Q: How did the inhibition at 1 µM ([1]; Table 8, cells stimulated with 1 nM testosterone, 1 μM dutasteride, read-out: Lipids (fluorescence intensity)/number of cells, % inhibition) turn out when `C[C@]12C=CC(=O)N[C@@H]1CC[C@@H]1[C@@H]2CC[C@]2(C)[C@@H](C(=O)Nc3cc(C(F)(F)F)ccc3C(F)(F)F)CC[C@@H]12` [dutasteride, reference compound] was run?
A: 113%

Q: And the “Lipids (fluorescence intensity)/number of cells, % stimulation” value ([1]; Table 8, cells stimulated with 1 nM testosterone, 1 μM dutasteride, stimulated untreated cells = 100)?
A: 22%

Q: What about the “Lipids, % change” value ([1]; Table 9, 1 nM testosterone, 1 μM dutasteride) of the same compound?
A: −82

Q: And the inhibition at 1 µM ([1]; Table 9, 1 nM testosterone, 1 μM dutasteride, read-out: Lipids, % inhibition)?
A: 91%

Q: How did the Lipase activity (lipase; Table 10, product at 1% by weight, 60 minutes at 37° C., control 4.21) turn out when `CC(O)CO` (stereo not drawn) [Propylene Glycol] was run?
A: 6.40 +/− 0.05 mU/m1
